The values below come from US7741479B2, “Urea inhibitors of MAP kinases” (Locus Pharmaceuticals, Inc., priority 2004, dated 2010).

The term inhibition denotes the change of the read-out against control, counted positive when it falls.

The target of the first assay is T1, p38 (Homo sapiens, UniProt Q16539).
T1 construct: made in house
T1 sequence (Q16539 whole entry): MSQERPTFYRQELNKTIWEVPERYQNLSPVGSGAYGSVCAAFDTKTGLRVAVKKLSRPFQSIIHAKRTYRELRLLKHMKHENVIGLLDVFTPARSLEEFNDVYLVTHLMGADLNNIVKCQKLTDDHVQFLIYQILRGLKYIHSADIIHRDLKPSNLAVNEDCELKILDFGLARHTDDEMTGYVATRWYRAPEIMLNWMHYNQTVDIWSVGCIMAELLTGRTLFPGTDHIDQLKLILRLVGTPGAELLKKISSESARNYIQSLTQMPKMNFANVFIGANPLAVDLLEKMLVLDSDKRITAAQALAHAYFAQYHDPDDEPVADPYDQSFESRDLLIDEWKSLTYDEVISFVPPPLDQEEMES
Briefly: Protein Kinase Assay (33P incorporation from γ-[33P]ATP into GST-ATF-2 substrate). It counts as biochemical. As to conditions: compound at 3 μM; read-out: Protein Kinase (% Inhibition at 3 μM). In a few lines: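 Non-activated human p38 (10 nM) was preincubated with compounds for 20 min at 30° C, then GST-ATF-2 (aa 19-96) and γ-[33P]ATP were added for 70 min at 30° C. Reactions were stopped with phosphoric acid; phosphorylated substrate was captured on phosphocellulose and scintillation-counted.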
As to `CC(C)(C)c1cc(C(=O)N2CCNS(=O)(=O)CC2)c(NC(=O)Nc2ccc3c(c2)OCO3)s1` [Example 93, 1-Benzo[1,3]dioxol-5-yl-3-[5-tert-butyl-3-(1,1-dioxo-1λ^6-[1,2,5]thiadiazepane-5-carbonyl)thiophen-2-yl]urea], the inhibition at 3 µM lay in the range of 76 to 100%.

Regarding `CC(C)(C)c1cc(C(=O)N2CCNS(=O)(=O)CC2)c(NC(=O)Nc2ccc3c(c2)OC(F)(F)O3)s1` [Example 94, 1-[5-tert-Butyl-3-(1,1-dioxo-1λ^6-[1,2,5]thiadiazepane-5-carbonyl)thiophen-2-yl]-3-(2,2-difluorobenzo[1,3]dioxol-5-yl)urea], the inhibition at 3 µM lay in the range of 76 to 100%.

With `COc1ccc(NC(=O)Nc2sc(C(C)(C)C)cc2C(=O)N2CCNS(=O)(=O)CC2)cc1Cl` [Example 95, 1-[5-tert-Butyl-3-(1,1-dioxo-1λ^6-[1,2,5]thiadiazepane-5-carbonyl)thiophen-2-yl]-3-(3-chloro-4-methoxyphenyl)urea], the inhibition at 3 µM was 76 to 100%.

As to `CC(C)(C)c1cc(C(=O)N2CCNS(=O)(=O)CC2)c(NC(=O)Nc2ccc(Cl)c(Cl)c2)s1` [Example 96, 1-[5-tert-Butyl-3-(1,1-dioxo-1λ^6-[1,2,5]thiadiazepane-5-carbonyl)thiophen-2-yl]-3-(3,4-dichlorophenyl)urea], the inhibition at 3 µM fell in the range of 76 to 100%.

Still in this assay, the particulars now being: same procedure at 0.5 μM.
Molecule `CC(C)(C)c1cc(C(=O)NCc2cccnc2)c(NC(=O)Nc2cccc(Cl)c2Cl)s1` [Example 130, 5-tert-butyl-2-[3-(2,3-dichlorophenyl)ureido]thiophene-3-carboxylic acid (pyridin-3-ylmethyl)amide] had an inhibition at 0.5 µM of 76 to 100%.

In turn, `CC(C)(C)c1cc(C(=O)NCc2cccnc2)c(NC(=O)Nc2cccc3ccccc23)s1` [Example 131, 5-tert-Butyl-2-(3-naphthalen-1-yl-ureido)thiophene-3-carboxylic acid (pyridin-3-ylmethyl)amide] came in with an inhibition at 0.5 µM of 76 to 100%.

`CC(C)(C)c1cc(C(=O)NCc2cccnc2)c(NC(=O)Nc2ccc3ccccc3c2)s1` [Example 132, 5-tert-Butyl-2-(3-naphthalen-2-yl-ureido)thiophene-3-carboxylic acid (pyridin-3-ylmethyl)amide] had an inhibition at 0.5 µM of 76 to 100%.

The molecule `CC(C)(C)c1cc(C(=O)Nc2ccc3nn[nH]c3c2)c(NC(=O)Nc2cccc(Cl)c2Cl)s1` [Example 133, 5-tert-Butyl-2-[3-(2,3-dichlorophenyl)ureido]thiophene-3-carboxylic acid (3H-benzotriazol-5-yl)amide] returned an inhibition at 0.5 µM of 76 to 100%.

As to `CCC1C(=O)NCCN1C(=O)c1cc(C(C)(C)C)sc1NC(=O)Nc1cccc(Cl)c1Cl` (stereo not drawn) [Example 134, 1-[5-tert-Butyl-3-(2-ethyl-3-oxopiperazine-1-carbonyl)thiophen-2-yl]-3-(2,3-dichlorophenyl)urea], the inhibition at 0.5 µM is 76 to 100%.

In the case of `C[C@H]1C(=O)NCCN1C(=O)c1cc(C(C)(C)C)sc1NC(=O)Nc1cccc(Cl)c1Cl` [Example 135, 1-[5-tert-Butyl-3-(2-methyl-3-oxopiperazine-1-carbonyl)thiophen-2-yl]-3-(2,3-dichlorophenyl)urea], the inhibition at 0.5 µM fell in the range of 76 to 100%.

Consider `CC(C)(C)c1cc(C(=O)N2CCNC(=O)C2(C)C)c(NC(=O)Nc2cccc(Cl)c2Cl)s1` [Example 136, 1-[5-tert-Butyl-3-(2,2-dimethyl-3-oxo-piperazine-1-carbonyl)thiophen-2-yl]-3-(2,3-dichlorophenyl)urea], for which the inhibition at 0.5 µM was in the range of 76 to 100%.

Still in this assay, the particulars now being: tested at 3 μM according to the procedure described above.
On to `CC(C)(C)c1cc(C(=O)N2CCNC(=O)CC2)c(NC(=O)NC2CCNCC2)s1` [Example 120, 1-[5-tert-Butyl-3-(5-oxo-[1,4]diazepane-1-carbonyl)thiophen-2-yl]-3-piperidin-4-ylurea], for which the protein kinase inhibition is recorded as 0-25%.
